From patent US20250353873A1, “COMPOUNDS AND METHODS FOR MODULATING APOE EXPRESSION” (Ionis Pharmaceuticals, Inc., priority 2024, published 2025)
Strand notation (5' to 3'): a small letter for the sugar, then the base; units joined by * are phosphorothioate-linked, units joined directly phosphodiester-linked; [ ] holds rarer units or linkages, { } end groups; capitals alone tell only the bases. [ms] = mesyl phosphoramidate linkage; e = 2'-O-(2-methoxyethyl) (MOE); [5mC] = 5-methylcytosine; d = 2'-deoxy (DNA)

How the values were obtained:
human APOE RNA [1] = experiment: Activity in APOE C57BL/6NTac-Apoeem7250 knock-in mice, single ICV bolus, 2 weeks (Example 9); assay type: in vivo; settings: single ICV bolus 300 μg
Method: Modified oligonucleotides described above were tested in the APOE knock-in mouse model C57BL/6NTac-Apoeem7250_B-A02(APOE)Tac, a heterozygous APOE mouse model. APOE knock-in mice used in this study express the full-length human APOE gene knocked into the mouse locus. Humanization of APOE gene was done via CRISPR/Cas-9-mediated gene editing, allowing for generation of a model with constitutive expression of human APOE gene. Targeting strategy was based on NCBI transcripts NM_009696.4 (mouse) and NM_000041.4 (human). Mouse genomic sequence from exon 1 to exon 4 (including the 5′ and 3′ UTRs) was replaced with the human counterpart from 141 bp upstream of exon 1 to 28 bp downstream of exon 4. A plasmid allowing expression of Cas9 mRNA, specific gRNA, and the puromycin resistance cassette, and a plasmid containing the homology regions of the mouse APOE gene, and the replaced human region were co-transfected into the Taconic Biosciences C57BL/6N Tac ES cell line. Homologous recombination clones were isolated using positive puromycin selection, and humanized allele was obtained after Cas9-mediated gene editing. C57BL/6NTac-Apoeem7250_B-A02(APOE)Tac mice were used in the in vivo experiments described below.
APOE C57BL/6NTac-Apoeem7250 knock-in mice were divided into groups of 3 mice each. Each mouse received a single ICV bolus of 300 μg of modified oligonucleotide. A group of 3 mice received a single ICV bolus with PBS as a negative control.
Two weeks post treatment, mice were sacrificed and RNA was extracted from cortical brain tissue and spinal cord for quantitative real-time RT-PCR analysis of RNA expression of APOE using human primer probe set RTS3073 (described herein above). APOE RNA levels were normalized to mouse Ppia. Mouse Ppia was amplified using primer probe set m_cyclo24 (described herein above). Results are presented as percent human APOE RNA relative to the amount of human APOE RNA in PBS treated animals, (% control).

human APOE RNA [2] = experiment: Activity in APOE 1549 knock-in mice, single ICV bolus, 2 weeks (Example 7); assay type: in vivo; settings: single ICV bolus of 300 μg, two weeks post treatment, Table 17
Method: Modified oligonucleotides described above were tested in APOE knock-in mice.
APOE knock-in mice (model 41549) were obtained from Taconic Biosciences. APOE knock-in mice were divided into groups of 2 mice each. Each mouse received a single intracerebroventricular (ICV) bolus of 300 μg of modified oligonucleotide. A group of 4 mice received a single ICV bolus with PBS as a negative control.
Two weeks post treatment, mice were sacrificed and RNA was extracted from cortical brain tissue and spinal cord for quantitative real-time RT-PCR analysis of RNA expression of APOE using primer probe set RTS3073 (described herein above). APOE RNA levels were normalized to mouse Ppia. Mouse Ppia was amplified using primer probe set m_cyclo24 (forward sequence TCGCCGCTTGCTGCA, designated herein as SEQ ID NO: 16; reverse sequence ATCGGCCGTGATGTCGA, designated herein as SEQ ID NO: 17; probe sequence […], designated herein as SEQ ID NO: 18). Results are presented as percent human APOE RNA relative to the amount of human APOE RNA in PBS treated animals, (% control). Each experiment is identified in separate tables below.

human APOE RNA [3] = experiment: Activity in APOE C57BL/6NTac-Apoeem7250 knock-in mice, single ICV bolus, 4 weeks (Example 10); assay type: in vivo; settings: single ICV bolus 300 μg
Method in brief: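 Human APOE RNA, quantified by real-time RT-PCR with RTS3073 and normalized to mouse Ppia, was read in cortical brain and spinal cord 4 weeks post dosing. Dosing was a single ICV bolus of 300 μg per knock-in mouse; values are % of PBS-treated animals.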

human APOE RNA [4] = experiment: Activity in APOE C57BL/6NTac-Apoeem7250 knock-in mice, single ICV bolus, 16 weeks (Example 12); assay type: in vivo; settings: single ICV bolus 300 μg, 16 weeks post treatment, normalized to mouse Ppia
Method in brief: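 A single 300 μg intracerebroventricular dose was given, with PBS-treated mice as reference; cortical and spinal cord tissue was taken 16 weeks later. RT-qPCR quantified human APOE RNA, Ppia-normalized, expressed relative to PBS animals (% control).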

human APOE RNA [5] = experiment: Activity in APOE C57BL/6NTac-Apoeem7250 knock-in mice, single ICV bolus, 8 weeks (Example 11); assay type: in vivo; settings: single ICV bolus 300 μg, 8 weeks post treatment, normalized to mouse Ppia
Method in brief: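 Cortical and spinal cord human APOE RNA quantified by RT-qPCR 8 weeks after a single 300 μg ICV dose in knock-in mice, Ppia-normalized. Values are percent of levels in PBS-treated animals.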

human APOE RNA [6] = experiment: Dose-dependent inhibition of human APOE RNA in HepG2 cells, electroporation, 24 hours (Example 6); assay type: cell-based
Method in brief: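 IC50 derived from APOE RNA levels, given as percent of untreated control after GAPDH normalization (probe sets RTS3073 and RTS104). Oligonucleotides were delivered at multiple concentrations by electroporation into HepG2 cells seeded at 50,000 per well.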

[7] = Cortex, C57BL/6NTac-Apoeem7250 knock-in mice, 4 weeks (Table 21)
[8] = Cortex, C57BL/6NTac-Apoeem7250 knock-in mice, 4 weeks (Table 22)
[9] = Spinal Cord, C57BL/6NTac-Apoeem7250 knock-in mice, 4 weeks (Table 21)
[10] = Spinal Cord, C57BL/6NTac-Apoeem7250 knock-in mice, 4 weeks (Table 22)

Row | Substance | APOE RNA (% control) Cortex (human APOE RNA [1]) [% control] | APOE RNA (% control) Spinal Cord (human APOE RNA [1]) [% control] | APOE RNA (% control) Cortex (human APOE RNA [2]) [% control] | APOE RNA (% control) Spinal Cord (human APOE RNA [2]) [% control] | APOE RNA (% control) Cortex (human APOE RNA [3]; [7]) [% control] | APOE RNA (% control) Cortex (human APOE RNA [3]; [8]) [% control] | APOE RNA (% control) Spinal Cord (human APOE RNA [3]; [9]) [% control] | APOE RNA (% control) Spinal Cord (human APOE RNA [3]; [10]) [% control] | APOE RNA (% control) Cortex (human APOE RNA [4]) [% control] | APOE RNA (% control) Spinal Cord (human APOE RNA [4]) [% control] | APOE RNA (% control) Cortex (human APOE RNA [5]) [% control] | APOE RNA (% control) Spinal Cord (human APOE RNA [5]) [% control] | IC50 (human APOE RNA [6]) [µM] | APOE RNA (% UTC) (human APOE RNA [6]; 5 nM) | APOE RNA (% UTC) (human APOE RNA [6]; 13 nM) | APOE RNA (% UTC) (human APOE RNA [6]; 33 nM) | APOE RNA (% UTC) (human APOE RNA [6]; 82 nM) | APOE RNA (% UTC) (human APOE RNA [6]; 205 nM) | APOE RNA (% UTC) (human APOE RNA [6]; 512 nM) | APOE RNA (% UTC) (human APOE RNA [6]; 1,280 nM) | further results
1 | 1693101: 6-10-4 MOE gapmer CTTGGTGAATCTTTATTAAA, linkages sssssozzzssssszssss (e[5mC]*eT*eT*eG*eG*eTdG[ms]dA[ms]dA[ms]dT*d[5mC]*dT*dT*dT*dA[ms]dT*eT*eA*eA*eA) [compound 1693101] | 62 | 55 | 79 | 57 | 71 | 57 | 50 | 77 | 71 | 56 | 58 | 46 | 4.03 | 70 | 91 | 120 | 111 | 95 | 75 | 53 | APOE RNA (% control) Cortex (human APOE RNA [3]; cortex, 4 weeks post treatment, normalized to mouse Ppia): 57 % control; APOE RNA (% control) Spinal Cord (human APOE RNA [3]; spinal cord, 4 weeks post treatment, normalized to mouse Ppia): 56 % control; APOE RNA (% UTC) (human APOE RNA [6]; 3,200 nM): 58 % UTC; APOE RNA (% UTC) (human APOE RNA [6]; 8,000 nM): 49 % UTC; APOE RNA (% UTC) (human APOE RNA [6]; 20,000 nM): 20 % UTC
2 | 1693102: 6-10-4 MOE gapmer CTTGGTGAATCTTTATTAAA, linkages ssssoszzzssssszssss (e[5mC]*eT*eT*eG*eGeT*dG[ms]dA[ms]dA[ms]dT*d[5mC]*dT*dT*dT*dA[ms]dT*eT*eA*eA*eA) [compound 1693102] | 51 | 51 | 60 | 45 | 61 | 55 | 48 | 72 | 69 | 41 | 58 | 43 | 1.17 | 89 | 95 | 87 | 92 | 80 | 64 | 48 | APOE RNA (% UTC) (human APOE RNA [6]; 3,200 nM): 32 % UTC; APOE RNA (% UTC) (human APOE RNA [6]; 8,000 nM): 22 % UTC; APOE RNA (% UTC) (human APOE RNA [6]; 20,000 nM): 10 % UTC
